In PMC7940618, “Specific inhibition of the Survivin–CRM1 interaction by peptide-modified molecular tweezers” (Nature Communications, 2021):
pIC50: −log10 of the molar value. Where “and” joins values, the source holds several entries; their conditions need not be identical. Equal entries are not always repeated. Peptide text beside a SMILES is read from it.

Experiments:
Format in all cases: binding
Survivin–CRM1 complex = biological target: T1, Survivin–CRM1 complex (Homo sapiens, UniProt O15392); assay: Pull-down with 293T lysate (Survivin142-HA), GST-CRM1 bait, RanQ69L, dGTP; conditions: pull-down, tweezer 0.01 to 200 µM, 293T lysate
T1 construct: expressed in transfected cells; host or cells: 293T cells (Survivin142-HA); E. coli soluBL21 (GST-CRM1, RanQ69L)
Procedure: We next investigated whether tweezers inhibit the Survivin–CRM1 complex formation in vitro. The effects of the unmodified and peptide-linked tweezers were analyzed via pull-down experiments with 293T lysates containing overexpressed HA-tagged Survivin142, recombinant GST-CRM1 as bait protein, and tweezers (Fig. 6). The parent and ELTL-linked tweezer required 10–50 µM to disrupt the Survivin–CRM1 complex. […] In order to provide experimental evidence for the sequence selectivity of the TW-ELTLGEFL ligand, a scrambled analog was synthesized and clicked to the tweezer, resulting in the hybrid molecule TW-LFEEGLLT (SI1, SI2, and SI10). […] Instead, the slight chemical shift perturbations might be due to the spatial proximity of the peptide moiety to the anchoring residue. All those results strongly indicate that the additional binding energy from the NES interface was lost due to scrambling and thus point toward specific recognition as the reason for increased selectivity and interference with the Survivin–CRM1 interaction. Of note, very high tweezer concentrations (100–200 µM) also weakened GST-CRM1 binding to GSH-Sepharose beads, most likely by low-affinity binding to the GST protein.
(§1) All pull-down assays were performed at room temperature in pull-down buffer (PBS, pH 7.4, 1 mM DTT, 0.02 Triton X-100). GST fusion proteins were immobilized on 50 μL GSH-coated Sepharose 4B beads from GE Healthcare. The beads were prior equilibrated and blocked with 500 μL pull-down blocking buffer (PBS, pH 7.4, 1 (w/v) BSA, 1 mM DTT, 0.02 (v/v) Triton X-100) for 1 h to prevent unspecific binding.
For analysis of the effective inhibitory tweezer concentration, 200 μg 293T lysate with overexpressed Survivin142-HA was preincubated without ligand or with different concentrations (10 nM to 200 μM) of unmodified tweezer TW, TW-ELTL, TW-ELTLGEFL, or TW-LFEEGLLT for 1 h and then mixed with 35 μg GST-CRM1, 55 μg RanQ69L, and 2 mM dGTP. GSH-beads were incubated with this protein mixture for 2 h under rotation. […]
Samples of input and beads taken during pull-down experiments were ran on 12.5 SDS gels and transferred onto 0.2 µM PVDF membranes (Amersham Hybond P 0.2) using a PerfectBlue™ tank electro blotter (Peqlab) at 350 mA for 150 min. […] Chemiluminescence was detected and imaged using the Pierce ECL Plus Western Blotting Substrate kit (Thermo Fisher Scientific) and Chemidoc system (Bio-Rad) or film processor Cawomat 2000 IR (CAWO). Western blots were analyzed by densitometric analysis with ImageJ version 1.52p (U.S. National Institutes of Health), measuring the mean gray intensity of protein bands. […]

[1] = biological target: T2, Survivin120/CRM1_1-1062VLV430AAA complex (Homo sapiens, UniProt O15392); assay: Fluorescence anisotropy titration of Atto488-Survivin120/CRM1 complex with tweezers; conditions: for Anisotropy: Data 1; for pIC50: fluorescence anisotropy, Atto488-Survivin120:CRM1 mutant 1:5, n = 1, read-out: IC50, disruption of Survivin–CRM1 complex
T2 construct: the only published NMR structure originated from a truncated Survivin (aa 1-120) with improved solubility; GST with PreScission site (N); made in house; host or cells: E. coli BL21-CodonPlus-RIL (CRM1 mutant); E. coli soluBL21 (Survivin120)
Procedure: We also used fluorescence anisotropy experiments to investigate the ability of the tweezer molecules to disrupt the Survivin–CRM1 complex. Atto488-labeled Survivin120 was preincubated with the CRM1_1-1062VLV430AAA mutant[40] that binds Survivin irrespective of RanGTP and titrated with tweezers.
Fluorescence anisotropy was measured with a Jasco Spectrofluorometer FP-8300 in PBS buffer, pH 7.4, at 25 °C and data were collected with the software Spectra Manager™.
For the quantitative analysis of the Survivin120/CRM1 complex, Survivin120 was labeled with ATTO488-maleimide from Jenabioscience according to the manufacturer’s instructions and mixed with CRM1_1-1062VLV430AAA in a ratio of 1:5. The protein complex was then titrated with tweezers in several steps until a final concentration of approximately 180 μM tweezers was reached. Data were transformed to logarithmic scale and IC50 was fitted using the equation in GraphPad Prism 8:2 y=Amin+Amax−Amin/1+10^x−logIC50 where Amax is the anisotropy in the absence of tweezer, Amin is the anisotropy at the end titration, and x is the concentration of tweezer. Amax was constrained for each data set, whereas Amin and IC50 were fitted.

[2] = biological target: T3, GST-Survivin120–CRM1 interaction (Homo sapiens, UniProt O15392); assay: Pull-down with GST-Survivin120 wildtype bait, CRM1 and RanQ69L; conditions: for CRM1: Peak area determined with ImageJ / CRM1 intensity_normalised on GST-Surv intensity (samples 1-14) / CRM1: Control w/o GST-Survivin subtracted (sample 16 or 23): CRM1 band; for CRM1: Peak area determined with ImageJ / CRM1 intensity_normalised on GST-Surv intensity (samples 1-14) / CRM1: Control w/o GST-Survivin subtracted (sample 16 or 23) / CRM1 intensity_normalised on GST-Surv intensity (samples 1-14) and CRM1 intensity w/o incubation (sample 15 or 22): samples 15-21 (WT); for CRM1: Control w/o GST-Survivin subtracted (sample 16 or 23): sample 16 subtracted; for GST-Surv: Peak area determined with ImageJ / GST-Surv: Control w/o GST-Survivin subtracted (sample 2 or 9): GST-Surv bait band; for GST-Surv: Peak area determined with ImageJ: samples 1-7 (WT according to the summary in r39-r41); for GST-Surv: Control w/o GST-Survivin subtracted (sample 2 or 9): samples 1-7 (WT), sample 2 subtracted; for Normalised CRM1 intensity, summary of replicates I and II: WT, w/o tweezer = 100, replicates I and II
T3 construct: the only published NMR structure originated from a truncated Survivin (aa 1-120) with improved solubility; made in house; host or cells: Escherichia coli soluBL21
Procedure: Next, we investigated whether tweezer inhibition of the export complex assembly is compromised upon lysine mutations near the NES. Therefore, pull-down experiments were performed with recombinant GST-tagged Survivin120 wildtype and K90/103T as bait proteins, tweezers, recombinant CRM1 and RanQ69L (Fig. 7g). Controls lacking the Survivin baits were included, as well as isolated peptides without tweezer (Fig. 7h). […] However, for the double lysine mutant GST-Survivin120-K90/103T even the tweezer conjugates lost most of their inhibitory power toward the essential Survivin–CRM1 interaction.
as §1
For analysis of the effective inhibitory tweezer concentration, 200 μg 293T lysate with overexpressed Survivin142-HA was preincubated without ligand or with different concentrations (10 nM to 200 μM) of unmodified tweezer TW, TW-ELTL, TW-ELTLGEFL, or TW-LFEEGLLT for 1 h and then mixed with 35 μg GST-CRM1, 55 μg RanQ69L, and 2 mM dGTP. GSH-beads were incubated with this protein mixture for 2 h under rotation. For analysis of tweezer specificity, 40 μg GST-Survivin120 or GST-Survivin120-K90/103T point mutant was pre-bound to equilibrated GSH-beads in 500 μL pull-down buffer, containing additionally either no ligand or 50 μM unmodified tweezer TW, TW-ELTL, TW-ELTLGEFL, or peptides ELTL and ELTLGEFL, for 1 h under rotation. After washing and blocking, GSH-beads were incubated with a protein mixture consisting of 2 mM dGTP, 50 μg CRM1, and 50 μg RanQ69L for 2 h under rotation.
Samples of input and beads taken during pull-down experiments were ran on 12.5 SDS gels and transferred onto 0.2 µM PVDF membranes (Amersham Hybond P 0.2) using a PerfectBlue™ tank electro blotter (Peqlab) at 350 mA for 150 min. Membranes were blocked for 1 h using 5% milk powder in TBS buffer containing 0.1% Tween-20. Next, membranes were incubated in primary antibodies against HA (anti-HA, mouse monoclonal, BioLegend, Covance MMS-101R, 1:1,000), GST (anti-GST, mouse monoclonal, Santa Cruz Biotechnology Inc., sc-57753, 1:1000) or CRM1 (anti-CRM1, rabbit polyclonal, Novus Biologicals Ltd., NB100-79802, 1:10,000) overnight at 4 °C. Secondary horseradish peroxidase (HRP)-conjugated antibody (anti-mouse IgG-HRP, sheep, GE Healthcare, NXA931 or anti-rabbit IgG-HRP, donkey, GE Healthcare, NA934) was then added (1:10,000) for 1 h at room temperature. Chemiluminescence was detected and imaged using the Pierce ECL Plus Western Blotting Substrate kit (Thermo Fisher Scientific) and Chemidoc system (Bio-Rad) or film processor Cawomat 2000 IR (CAWO). Western blots were analyzed by densitometric analysis with ImageJ version 1.52p (U.S. National Institutes of Health), measuring the mean gray intensity of protein bands. Uncropped and unprocessed scans of western blots are deposited in the Source Data file.

[3] = Concentration of Tweezer 8.26446
[4] = Concentration of Tweezer 16.39344
[5] = Concentration of Tweezer 24.39024
[6] = Concentration of Tweezer 32.25806
[7] = Concentration of Tweezer 40.00000
[8] = Concentration of Tweezer 55.11811
[9] = Concentration of Tweezer 83.96947
[10] = Concentration of Tweezer 136.69060
[11] = Concentration of Tweezer 183.67350
[12] = fraction of sample 15 (w/o Tweezer)

T3 sequence (O15392 1-120): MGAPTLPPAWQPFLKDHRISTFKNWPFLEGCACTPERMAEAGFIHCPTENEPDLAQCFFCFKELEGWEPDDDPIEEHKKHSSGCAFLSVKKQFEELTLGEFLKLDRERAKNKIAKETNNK
T2 sequence (O15392 1-120, one chain of several): as the sequence (O15392 1-120) above
T1 sequence (O15392 whole entry, one chain of several): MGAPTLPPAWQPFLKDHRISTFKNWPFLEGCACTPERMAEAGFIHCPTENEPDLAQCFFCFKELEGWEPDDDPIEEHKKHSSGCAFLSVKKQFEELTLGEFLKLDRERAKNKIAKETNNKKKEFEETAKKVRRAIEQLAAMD

## O=P(O)(O)Oc1c2c(c(OP(=O)(O)O)c3c1C1CC3c3cc4c(cc31)C1CC4c3ccccc31)C1CC2c2cc3c(cc21)C1CC3c2ccccc21 [TW, reference compound]
Survivin–CRM1 complex
  concentration required to disrupt the Survivin–CRM1 complex: 10 to 50 µM
[1]; [3]
  Anisotropy: 0.0578
[1]; [4]
  Anisotropy: 0.0573
[1]; [5]
  Anisotropy: 0.0568
[1]; [6]
  Anisotropy: 0.0561
[1]; [7]
  Anisotropy: 0.0556
[1]; [8]
  Anisotropy: 0.0551
[1]; [9]
  Anisotropy: 0.0525
[1]; [10]
  Anisotropy: 0.0507
[1]; [11]
  Anisotropy: 0.0512
[1]; Concentration of Tweezer 225.80650
  Anisotropy: 0.0517
[1]
  pIC50: 4.28 and 4.27
[2]
  CRM1: Peak area determined with ImageJ: 21154.6
  CRM1 intensity_normalised on GST-Surv intensity (samples 1-14): 0.3073
  CRM1: Control w/o GST-Survivin subtracted (sample 16 or 23): 16296.9
  GST-Surv: Peak area determined with ImageJ: 53864.7
  GST-Surv: Control w/o GST-Survivin subtracted (sample 2 or 9): 53029.3
  Normalised CRM1 intensity, summary of replicates I and II: 86.9559% and 97.9595%
[2]; pull-down, 50 µM ligand, wildtype
  inhibition of the interaction between CRM1 and GST-Survivin120: inactive
[2]; [12]
  CRM1 intensity_normalised on GST-Surv intensity (samples 1-14) and CRM1 intensity w/o incubation (sample 15 or 22): 0.8696
[2]; w/o Tweezer = 100
  CRM1 intensity_normalised on GST-Surv intensity (samples 1-14) and CRM1 intensity w/o incubation (sample 15 or 22): 86.9559%

## CC(C)C[C@H](NC(=O)[C@H](Cc1ccccc1)NC(=O)[C@H](CCC(=O)O)NC(=O)CNC(=O)[C@H](CC(C)C)NC(=O)[C@@H](NC(=O)[C@H](CC(C)C)NC(=O)[C@H](CCC(=O)O)NC(=O)Cn1cc(CCOP(=O)(O)Oc2c3c(c(OP(=O)(O)O)c4c2C2CC4c4cc5c(cc42)C2CC5c4ccccc42)C2CC3c3cc4c(cc32)C2CC4c3ccccc32)nn1)[C@@H](C)O)C(=O)O [TW-ELTLGEFL] (HELM PEPTIDE1{[O=C(Cn1cc(CCOP(=O)(O)Oc2c3c(c(OP(=O)(O)O)c4c2C2CC4c4cc5c(cc42)C2CC5c4ccccc42)C2CC3c3cc4c(cc32)C2CC4c3ccccc32)nn1)[*:2]].E.L.T.L.G.E.F.L}$$$$V2.0)
[1]
  pIC50: 4.92 and 4.93
[2]
  Normalised CRM1 intensity, summary of replicates I and II: 18.4722% and 35.2764%
[2]; w/o Tweezer = 100
  CRM1 intensity_normalised on GST-Surv intensity (samples 1-14) and CRM1 intensity w/o incubation (sample 15 or 22): 18.4722%

## CC(C)C[C@H](NC(=O)[C@@H](NC(=O)[C@H](CC(C)C)NC(=O)[C@H](CCC(=O)O)NC(=O)Cn1cc(CCOP(=O)(O)Oc2c3c(c(OP(=O)(O)O)c4c2[C@H]2C[C@@H]4c4cc5c(cc42)[C@H]2C[C@@H]5c4ccccc42)[C@H]2C[C@@H]3c3cc4c(cc32)[C@H]2C[C@@H]4c3ccccc32)nn1)[C@@H](C)O)C(=O)O [TW-ELTL]
Survivin–CRM1 complex
  concentration required to disrupt the Survivin–CRM1 complex: 10 to 50 µM
[1]; [3]
  Anisotropy: 0.0572
[1]; [4]
  Anisotropy: 0.0560
[1]; [5]
  Anisotropy: 0.0559
[1]; [6]
  Anisotropy: 0.0551
[1]; [7]
  Anisotropy: 0.0548
[1]; [8]
  Anisotropy: 0.0528
[1]; [9]
  Anisotropy: 0.0510
[1]; [10]
  Anisotropy: 0.0501
[1]; [11]
  Anisotropy: 0.0506
[1]
  pIC50: 4.41
[2]
  CRM1: Peak area determined with ImageJ: 4951.05
  CRM1 intensity_normalised on GST-Surv intensity (samples 1-14): 0.007388
  CRM1: Control w/o GST-Survivin subtracted (sample 16 or 23): 93.343
  GST-Surv: Peak area determined with ImageJ: 13469.9
  GST-Surv: Control w/o GST-Survivin subtracted (sample 2 or 9): 12634.6
  Normalised CRM1 intensity, summary of replicates I and II: 2.09% and 27.3879%
[2]; [12]
  CRM1 intensity_normalised on GST-Surv intensity (samples 1-14) and CRM1 intensity w/o incubation (sample 15 or 22): 0.0209
[2]; w/o Tweezer = 100
  CRM1 intensity_normalised on GST-Surv intensity (samples 1-14) and CRM1 intensity w/o incubation (sample 15 or 22): 2.09%
